Columns and labels:
Format in all cases: cell-based
[1] = target: T1, asc-1 of mouse (co-expressed with 4F2hc of mouse) (Mus musculus, UniProt P63115); experiment: Release of preloaded 14C-alanine from oocytes co-expressing asc-1 and 4F2hc on extracellular addition of compound; details: 100 μM compound added to Na+-free uptake solution; room temperature
T1 construct: expressed in transfected cells; host or cells: Xenopus oocytes injected with cRNA
T1 sequence (P63115 1-530): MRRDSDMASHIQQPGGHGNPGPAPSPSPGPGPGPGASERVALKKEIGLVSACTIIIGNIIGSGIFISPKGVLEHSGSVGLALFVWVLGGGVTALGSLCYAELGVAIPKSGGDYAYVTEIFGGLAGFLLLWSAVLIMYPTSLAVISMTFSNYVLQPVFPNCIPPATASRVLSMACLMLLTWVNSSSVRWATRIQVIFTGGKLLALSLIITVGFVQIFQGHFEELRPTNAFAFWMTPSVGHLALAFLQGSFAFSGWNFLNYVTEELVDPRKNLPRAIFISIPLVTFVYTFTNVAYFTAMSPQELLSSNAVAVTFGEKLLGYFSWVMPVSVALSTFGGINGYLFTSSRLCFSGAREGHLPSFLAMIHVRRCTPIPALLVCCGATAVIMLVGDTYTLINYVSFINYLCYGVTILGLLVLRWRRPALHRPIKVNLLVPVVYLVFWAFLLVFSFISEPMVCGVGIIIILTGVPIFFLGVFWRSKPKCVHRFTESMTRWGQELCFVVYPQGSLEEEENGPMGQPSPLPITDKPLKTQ
T1 sequence (P10852 1-526 partner): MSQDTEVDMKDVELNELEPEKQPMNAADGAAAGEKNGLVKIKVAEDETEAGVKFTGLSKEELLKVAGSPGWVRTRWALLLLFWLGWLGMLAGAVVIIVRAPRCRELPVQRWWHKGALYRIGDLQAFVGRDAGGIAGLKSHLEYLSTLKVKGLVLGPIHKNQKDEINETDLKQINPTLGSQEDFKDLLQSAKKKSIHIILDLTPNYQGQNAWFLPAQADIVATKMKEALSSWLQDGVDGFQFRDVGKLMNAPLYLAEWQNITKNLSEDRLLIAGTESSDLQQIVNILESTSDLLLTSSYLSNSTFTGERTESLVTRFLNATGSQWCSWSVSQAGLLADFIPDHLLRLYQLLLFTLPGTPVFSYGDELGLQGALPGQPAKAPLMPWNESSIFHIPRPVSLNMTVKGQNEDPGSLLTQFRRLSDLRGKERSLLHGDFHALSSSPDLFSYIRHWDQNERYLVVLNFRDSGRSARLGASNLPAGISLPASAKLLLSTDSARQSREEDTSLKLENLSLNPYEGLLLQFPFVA
Method: (§1) Release of a preloaded ^14C-alanine mediated by asc-1 was checked in the oocytes into which both asc-1 gene cRNA and 4F2hc gene cRNA of mouse were injected together. ^14C-Alanine (−3nCi) of 100 μM in an amount of 100 nl was injected into the oocytes into which both asc-1 gene cRNA and 4F2hc gene cRNA of mouse were injected together, washed with an ice-cooled Na^+-free uptake solution containing no alanine and transferred to a Na^+-free uptake solution to which alanine (100 μM) was added or not added at room temperature (18° C.-22° C.) and the amount of ^14C-alanine released outside the cells was measured.
In oocytes into which cRNA of asc-1 gene and cRNA of 4F2hc gene of mouse were injected together, release of preloaded ^14C-alanine mediated by asc-1 was investigated whereupon it was checked whether the compound which inhibited the incorporation of ^14C-alanine mediated by asc-1 was a substrate of asc-1.
as §1, with “^14C-Alanine” for “Release of a preloaded ^14C-alanine mediated by asc-1 was checked in the oocytes into which both asc-1 gene cRNA and 4F2hc gene cRNA of mouse were injected together. ^14C-Alanine”, “which amino acid or amino acid analog” for “which alanine”
Black bars in FIG. 18 are the case where there were used oocytes into which cRNA of mouse asc-1 gene and cRNA of mouse 4F2hc gene were injected while white bars are the case where there were used oocytes into which water was injected instead of cRNA as a control.

[2] = target: T1, asc-1 of mouse (co-expressed with 4F2hc of mouse); experiment: Inhibition of 14C-alanine incorporation by added amino acids and analogs in oocytes co-expressing asc-1 and 4F2hc; details: 14C-alanine 50 μM; 5 mM non-labeled compound; Na+-free uptake solution
Method: (§2) Into oocytes were injected 12 ng of asc-1 gene cRNA of mouse, 13 ng of 4F2hc gene cRNA of mouse or 12 ng asc-1 gene cRNA of mouse/13 ng of 4F2hc gene cRNA of mouse to express followed by incubating for 3 days. […] Thus, the oocytes were allowed to stand for 30 minutes in a Na^+-free uptake solution [100 mM choline chloride, 2 mM potassium chloride, 1.8 mM calcium chloride, 1 mM magnesium chloride, 5 mM HEPES; pH 7.4] containing ^14C-alanine (100 μM) as a substrate and the rate of the substrate incorporated into the cells was measured by way of counting the radioactivity incorporated thereinto.
In an experiment of incorporation of alanine by oocytes into which both asc-1 gene cRNA of mouse and 4F2hc gene cRNA of mouse were injected, influence of addition of various amino acid and analogs thereof was investigated.
In an experiment of incorporation of alanine, a method according to that mentioned in the above Example 2(1) was carried out using oocytes into which both asc-1 gene cRNA of mouse and 4F2hc gene cRNA of mouse were injected. Here, a Na^+-free uptake solution was used and incorporation of ^14C-alanine (50 μM) was measured in the presence and absence of 5 mM of various compounds (non-labeled).

[3] = target: T1, asc-1 of mouse (co-expressed with 4F2hc of mouse); experiment: Michaelis-Menten kinetic test of substrate incorporation by Xenopus oocytes co-expressing asc-1 and 4F2hc; details: ratio to the Vmax value for alanine (defined as 1.00)
Method: as §2
A Michaelis-Menten kinetic test was carried out for a sodium-independent small neutral amino acid transporter asc-1 which transports L- and D-amino acids. By checking the changes in the rate of incorporation of alanine due to the difference in concentration of the alanine substrate, the Michaelis-Menten kinetic test of asc-1 was carried out.
An experiment for the incorporation of alanine was carried out according to the method mentioned in the above Example 2(1) using the oocytes into which both asc-1 gene cRNA of mouse and 4F2hc gene cRNA of mouse were injected.
With regard to amino acids other than alanine which were used as substrates, a Michaelis-Menten kinetic was carried out as well in the same manner whereupon Km values and Vmax values were calculated. Each Vmax value in Table 1 was shown in terms of the ratio when the Vmax value of alanine was defined as 1.00.

[4] = target: T1, asc-1 of mouse (co-expressed with 4F2hc of mouse); experiment: Incorporation of radiolabeled amino acids and analogs by oocytes co-expressing asc-1 and 4F2hc; details: for incorporation into the oocytes as substrate: radiolabeled substrate, oocytes expressing both asc-1 and 4F2hc, Na+-free uptake solution; for transport by asc-1 (affinity in words): summary statement, asc-1 co-existing with 4F2hc
Method: Incorporation of alanine when asc-1 gene cRNA of mouse was solely expressed in oocytes of Xenopus and when asc-1 gene cRNA of mouse and 4F2hc gene cRNA of mouse were expressed in oocytes of Xenopus together was compared.
as §2
In an experiment of incorporation of alanine by oocytes into which both asc-1 gene cRNA and 4F2hc gene cRNA of mouse were injected together, influence of the salt added to the medium was investigated.
The experiment of incorporation of alanine was carried out in accordance with the method mentioned in the above Example 2(1) using oocytes into which both asc-1 gene cRNA and 4F2hc gene cRNA of mouse were injected together. When the influence of sodium ion was checked however, a standard uptake solution (where 100 mM choline chloride was substituted with 100 mM sodium chloride) was used in place of the Na^+-free uptake solution as the uptake solution. When the influence of chlorine ion was checked, a gluconic acid uptake solution (where 100 mM sodium chloride was substituted with 100 mM sodium gluconate) was used in place of the standard uptake solution.
Incorporation by asc-1 was investigated using various amino acids and analogs thereof as substrates. Experiment for incorporation of various amino acids and analogs thereof was carried out according to the method mentioned in the above Example 2(1) using oocytes into which asc-1 gene cRNA of mouse and 4F2hc gene cRNA of mouse were injected together. With regard to the substrates however, various compounds labeled with radioactivity were used in place of ^14C-alanine.
Influence of pH was checked in an experiment for incorporation of alanine by oocytes into which both asc-1 gene cRNA and 4F2hc gene cRNA of mouse were injected together. With regard to an experiment for incorporation of alanine, the method according to that mentioned in the above Example 2 (1) was carried out using oocytes into which both asc-1 gene cRNA of mouse and 4F2hc gene cRNA of mouse were injected together.

[5] = target: T2, intracellular substrate-binding site of asc-1 of mouse (Mus musculus, UniProt P63115); experiment: Release of injected 14C-amino acid from oocytes co-expressing asc-1 and 4F2hc on extracellular alanine; details: alanine 100 μM added to Na+-free uptake solution
T2 construct: expressed in transfected cells; host or cells: Xenopus oocytes injected with cRNA
T2 sequence (P63115 1-530): T1 sequence (P63115 1-530)
T2 sequence (P10852 1-526 partner): T1 sequence (P10852 1-526 partner)
Method: In oocytes into which cRNA of asc-1 gene and cRNA of 4F2hc gene of mouse were injected together, release of preloaded ^14C-amino acid mediated by asc-1 was checked whereby the substrate selectivity of intracellular substrate-binding site of asc-1 was checked.
^14C-Amino acid (˜3nCi) of 100 μM in an amount of 100 nl was injected into the oocytes into which both asc-1 gene cRNA and 4F2hc gene cRNA of mouse were injected together, washed with an ice-cooled Na^+-free uptake solution containing no alanine and transferred to a Na^+-free uptake solution to which alanine (100 μM) was added or not added at room temperature (18° C.-22° C.) and the amount of ^14C-amino acid released outside the cells was measured.
Black bars in FIG. 21 show the case where alanine was added to a Na^+-free uptake solution while bars with oblique lines show the case where alanine was not added to a Na^+-free uptake solution.

Row | Molecule | increase in the release of preloaded 14C-alanine [1] | inhibition of incorporation of 14C-alanine mediated by asc-1 [2] | Vmax [3] | incorporation into the oocytes as substrate [4] | transport by asc-1 (affinity in words) [4] | release of injected 14C-labeled amino acid by extracellular alanine [5]
1 | CC(C)(N)C(=O)O [AIB, α-aminoisobutyric acid] | significant increase | inhibited | 0.81 | big incorporation | transports | 
2 | NC1(C(=O)O)CC2CCC1C2 (stereo not drawn) [BCH, 2-amino-2-norbornane-carboxylic acid] |  | did not affect |  |  |  | 
3 | C[C@@H](N)C(=O)O [D-Alanine] | significant increase | strongly inhibited | 0.86 | big incorporation | transports | 
4 | N[C@H](CO)C(=O)O [D-Serine] | significant increase | strongly inhibited | 1.22 | big incorporation | highly affinitive | 
5 | C[C@H](O)[C@@H](N)C(=O)O [D-Threonine] | significant increase |  |  |  |  | 
6 | N[C@H](CS)C(=O)O [D-cysteine] | significant increase | mediumly inhibited |  |  | transports | 
7 | NCC(=O)O [Glycine] | high increase |  | 0.89 |  |  | increase in release
8 | N[C@@H](CS)C(=O)O [L-Cysteine] |  | particularly strongly inhibited | 0.82 | big incorporation | highly affinitive | increase in release
9 | N[C@@H](Cc1c[nH]cn1)C(=O)O [L-Histidine] |  |  | 0.79 |  | lowly affinitive | 
10 | CC[C@H](C)[C@H](N)C(=O)O [L-Isoleucine] |  |  | 1.33 |  | lowly affinitive | 
11 | CSCC[C@H](N)C(=O)O [L-Methionine] | medium increase |  | 1.15 |  | lowly affinitive | 
12 | N[C@@H](Cc1ccccc1)C(=O)O [L-Phenylalanine] |  |  | 1.09 |  | lowly affinitive | 
13 | C[C@@H](O)[C@H](N)C(=O)O [L-Threonine] | high increase |  | 0.86 |  |  | increase in release
14 | CC(C)[C@H](N)C(=O)O [L-Valine] | medium increase |  | 1.17 |  | lowly affinitive | 
15 | CN[C@@H](C)C(=O)O [N-methylalanine] |  | did not affect |  |  |  | 
16 | COC(=O)[C@H](C)N [alanine methyl ester] | significant increase | inhibited |  |  | transports | 
17 | CNCC(=O)O [sarcosine] |  | did not affect |  |  |  | 
18 | NCCC(=O)O [β-Alanine] | significant increase | inhibited | 0.92 | big incorporation | transports | 
19 | γ-aminoisobutyric acid |  | did not affect |  |  |  | 

From US20070122422A1, “Sodium-independent small neutral amino acid transporter transporting L- and D- amino acids” (Japan Science and Technology Corporation, priority 2000, published 2007)
